Test results as given in publication PMC7761982, “FDA-Approved Drugs with Potent In Vitro Antiviral Activity against Severe Acute Respiratory Syndrome Coronavirus 2” (Pharmaceuticals, 2020).
pIC50: −log10 of the molar value. Structures can show the parent of a compound that is named as a salt. Where two headings read alike, the source gives them in different places.

Key:
NRC-03-nhCoV = experiment: microbe, parasite or virus in culture; assay type: cell-based, SARS-CoV-2; conditions: for pIC50: read-out: IC50 (NRC-03-nhCoV); for IC50: Severe acute respiratory syndrome coronavirus 2, Vero C1008, negative log of the IC50 value against SARS-CoV-2, read-out: pIC50 (converted)
in vitro = conditions: African green monkey, CC50 (Vero-E6)
[1] = read-out: CC50 (Vero-E6), half maximal cytotoxic concentration, MTT assay, Vero-E6 cells
[2] = Vero-E6 cells, 72 h, crystal violet, reduction of virus-induced CPE by 50%
[3] = Severe acute respiratory syndrome coronavirus 2, Vero C1008, 72 h, Vero-E6 cells, 72 h, crystal violet, reduction of virus-induced CPE by 50%
[4] = half maximal cytotoxic concentration, MTT assay, Vero-E6 cells
[5] = Severe acute respiratory syndrome coronavirus 2, Vero C1008, Vero-E6 cells, 72 h, crystal violet, reduction of virus-induced CPE by 50%

| Molecule | pIC50 (NRC-03-nhCoV; [3]) | CC50 (in vitro; [4]) [µM] | also measured |
| --- | --- | --- | --- |
| Cc1c(N(C)CS(=O)(=O)O)c(=O)n(-c2ccccc2)n1C [Metamizole sodium] | – | – | CC50 (Vero-E6 cells; [1]): 948 µM; pIC50 (NRC-03-nhCoV; [2]): 4.82 |
| CCC(=O)O[C@]1(C(=O)SCF)[C@H](C)C[C@H]2[C@@H]3C[C@H](F)C4=CC(=O)C=C[C@]4(C)[C@@]3(F)[C@@H](O)C[C@@]21C [Fluticasone Propionate] | 5.77 | 32 | – |
| Cc1cnc(NC(=O)C2=C(O)c3ccccc3S(=O)(=O)N2C)s1 [Meloxicam] | 4.91 | 262 | – |
| CC(=O)Nc1ccc(O)cc1 [Paracetamol] | – | 4980 | – |
| Cc1onc(-c2c(F)cccc2Cl)c1C(=O)N[C@@H]1C(=O)N2[C@@H]1SC(C)(C)[C@@H]2C(=O)O [Flucloxacillin] | 3.80 | 966 | – |
| CN(C)CCC(c1ccc(Cl)cc1)c1ccccn1 (stereo not drawn) [Chlorpheniramine maleate] | 5.44 | 466 | – |
| CC(C)(O)c1ccccc1CC[C@@H](SCC1(CC(=O)O)CC1)c1cccc(/C=C/c2ccc3ccc(Cl)cc3n2)c1 [Montelukast] | – | – | CC50 (in vitro): 9.86 µM |
| C[C@@H]1[C@H](O)[C@@H](C)/C=C/C=C/CC/C=C/C=C/C=C/C=C/C(O[C@H]2O[C@H](C)[C@@H](O)[C@H](N)[C@@H]2O)CC2O[C@](O)(CC(O)C(O)CCC(O)CC(O)CC(O)CC(=O)O[C@H]1C)CC(O)C2C(=O)O (stereo partly drawn) [Nystatin] | – | – | CC50 (Vero-E6 cells; [1]): 183 µM; pIC50 (NRC-03-nhCoV; [2]): 3.79 |
| C[C@@H]1C[C@H]2[C@@H]3CCC4=CC(=O)C=C[C@]4(C)[C@@]3(F)[C@@H](O)C[C@]2(C)[C@@]1(O)C(=O)CO [Dexamethasone] | 3.91 | 1900 | – |
| CC1(C)S[C@@H]2[C@H](NC(=O)Cc3ccccc3)C(=O)N2[C@H]1C(=O)O [Benzathine penicillin] | – | – | CC50 (Vero-E6 cells; [1]): 728 µM; pIC50 (NRC-03-nhCoV; [2]): 4.80 |
| CC1=C(C(=O)O)N2C(=O)[C@@H](NC(=O)[C@H](N)c3ccccc3)[C@H]2SC1 [Cephalexin] | 4.88 | – | – |
| C[C@H]1c2cccc(O)c2C(=O)C2=C(O)[C@]3(O)C(=O)C(C(N)=O)=C(O)[C@@H](N(C)C)[C@@H]3[C@@H](O)[C@@H]21 [Doxycycline] | 5.29 | 636 | IC50 (NRC-03-nhCoV): 5.13 µM |
| CC1(C)S[C@@H]2[C@H](NC(=O)[C@H](N)c3ccc(O)cc3)C(=O)N2[C@H]1C(=O)O [Amoxicillin] | 4.79 | 615 | – |
| COc1ccc(C[C@@H](C)NC[C@H](O)c2ccc(O)c(NC=O)c2)cc1 [Formoterol Fumarate] | – | – | CC50 (Vero-E6 cells): 569 µM; pIC50 (NRC-03-nhCoV; [2]): 4.14 |
| Neomycin | – | – | CC50 (Vero-E6 cells; [1]): 833 µM; pIC50 (NRC-03-nhCoV; [2]): 4.74 |
| CN1C(C(=O)Nc2ccccn2)=C(O)c2ccccc2S1(=O)=O [Piroxicam] | 5.09 | 1800 | IC50 (NRC-03-nhCoV): 8.13 µM |
| OCc1cc(C(O)CNCCCCCCOCCCCc2ccccc2)ccc1O (stereo not drawn) [Salmeterol] | – | 4.1 | pIC50 (NRC-03-nhCoV; [5]): 5.82 |
| O=C1CN(/N=C/c2ccc([N+](=O)[O-])o2)C(=O)N1 [Nitrofurantoin] | – | – | pIC50 (NRC-03-nhCoV; Severe acute respiratory syndrome coronavirus 2, Vero C1008, 72 h): 4.79; CC50 (in vitro): 599 µM |
| NCC[C@H](O)C(=O)N[C@@H]1C[C@H](N)[C@@H](O[C@H]2O[C@H](CN)[C@@H](O)[C@H](O)[C@H]2O)[C@H](O)[C@H]1O[C@H]1O[C@H](CO)[C@@H](O)[C@H](N)[C@H]1O [Amikacin sulphate] | – | – | CC50 (Vero-E6 cells; [1]): 2460 µM; pIC50 (NRC-03-nhCoV; [2]): 4.77 |
| CC(C)(O/N=C(\C(=O)N[C@@H]1C(=O)N2C(C(=O)[O-])=C(C[n+]3ccccc3)CS[C@H]12)c1csc(N)n1)C(=O)O [Ceftazidime] | 4.34 | 5550 | – |

| Molecule | pIC50 (NRC-03-nhCoV; [3]) | CC50 (in vitro; [4]) [µM] | also measured |
| --- | --- | --- | --- |
| CCC[C@@H]1C[C@@H](C(=O)N[C@@H]([C@H]2O[C@H](SC)[C@H](O)[C@@H](O)[C@H]2O)[C@H](C)Cl)N(C)C1 [Clindamycin] | 4.80 | – | pIC50 (NRC-03-nhCoV; [2]): 4.80 |
| COc1ccc2c(c1)c(CC(=O)O)c(C)n2C(=O)c1ccc(Cl)cc1 [Indomethacin] | 5.07 | 672 | – |
| C[C@H]1C[C@@H]2[C@H]([C@@H](O)C[C@@]3(C)[C@H]2CC[C@]3(O)C(=O)CO)[C@@]2(C)C=CC(=O)C=C12 [Methylprednisolone] | 4.04 | 3340 | – |
| CC(=O)NC[C@H]1CN(c2ccc(N3CCOCC3)c(F)c2)C(=O)O1 [Linezolid] | 4.79 | 816 | – |
| O=C(O)Cc1ccccc1Nc1c(Cl)cccc1Cl [Diclofenac sodium] | 4.02 | 138 | – |
| CO/N=C(\C(=O)N[C@@H]1C(=O)N2C(C(=O)O)=C(CSc3nc(=O)c(=O)[nH]n3C)CS[C@H]12)c1csc(N)n1 [Ceftriaxone] | – | 446 | pIC50 (NRC-03-nhCoV; [5]): 4.79 |
| O=C(c1ccccc1)c1ccc2n1CCC2C(=O)O (stereo not drawn) [Ketorolac Tromethamine] | 3.81 | 2040 | – |
| O=C(N[C@H](CO)[C@H](O)c1ccc([N+](=O)[O-])cc1)C(Cl)Cl [Chloramphenicol] | 4.77 | 33.9 | CC50 (Vero-E6 cells; [1]): 33.9 µM |
| CC(C)Cc1ccc(C(C)C(=O)O)cc1 (stereo not drawn) [Ibuprofen] | 4.05 | 1170 | – |
| COc1c(N2C[C@@H]3CCCN[C@@H]3C2)c(F)cc2c(=O)c(C(=O)O)cn(C3CC3)c12 [Moxifloxacin] | 4.91 | 2240 | – |
| c1ccc2c(CC3=NCCN3)cccc2c1 [Naphazoline] | 5.02 | 636 | – |
| C[C@]12CCC(=O)C=C1CC[C@@H]1[C@@H]2[C@@H](O)C[C@@]2(C)[C@H]1CC[C@]2(O)C(=O)CO [Hydrocortisone] | 5.15 | 614 | – |
| Cc1ccc(-c2cc(C(F)(F)F)nn2-c2ccc(S(N)(=O)=O)cc2)cc1 [Celecoxib] | 4.89 | 140 | IC50 (NRC-03-nhCoV): 12.9 µM |
| C[C@H]1COc2c(N3CCN(C)CC3)c(F)cc3c(=O)c(C(=O)O)cn1c23 [Levofloxacin] | 4.86 | 2160 | – |
| CC(=O)Oc1ccccc1C(=O)O [Acetyl Salicylic acid “Aspirin”, Acetyl Salicylic acid] | 4.92 | 1260 | – |
| O=C(O)c1cn(C2CC2)c2cc(N3CCNCC3)c(F)cc2c1=O [Ciprofloxacin] | 4.21 | – | – |
| CC(C)C(=O)OCC(=O)[C@@]12O[C@H](C3CCCCC3)O[C@@H]1C[C@H]1[C@@H]3CCC4=CC(=O)C=C[C@]4(C)[C@H]3[C@@H](O)C[C@@]12C [Ciclesonide] | 5.38 | 120 | – |
| CCN1CCN(C(=O)N[C@@H](C(=O)N[C@@H]2C(=O)N3C(C(=O)O)=C(CSc4nnnn4C)CS[C@H]23)c2ccc(O)cc2)C(=O)C1=O [Cefoperazone] | 4.91 | 69 | – |
| CO/N=C(\C(=O)N[C@@H]1C(=O)N2C(C(=O)O)=C(COC(C)=O)CS[C@H]12)c1csc(N)n1 [Cefotaxime] | 4.37 | 3160 | – |
